Assay [1] concerns the target T1, Serine/threonine-protein kinase VRK1 (Homo sapiens) (UniProt Q99986).
T1 sequence (whole entry): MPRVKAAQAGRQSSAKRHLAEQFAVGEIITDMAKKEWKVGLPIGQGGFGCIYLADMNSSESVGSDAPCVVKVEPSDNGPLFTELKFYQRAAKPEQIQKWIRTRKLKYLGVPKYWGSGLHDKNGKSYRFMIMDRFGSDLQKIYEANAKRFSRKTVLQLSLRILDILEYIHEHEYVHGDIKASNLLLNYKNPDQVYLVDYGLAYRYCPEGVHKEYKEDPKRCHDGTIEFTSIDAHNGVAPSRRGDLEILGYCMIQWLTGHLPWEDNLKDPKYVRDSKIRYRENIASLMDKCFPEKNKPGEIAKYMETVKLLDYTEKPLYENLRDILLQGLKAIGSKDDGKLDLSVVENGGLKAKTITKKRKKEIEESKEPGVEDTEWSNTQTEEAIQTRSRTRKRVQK

Assay [2] addresses T2, Mitogen-activated protein kinase kinase kinase 5 (Homo sapiens) (UniProt Q99683).
T2 sequence (whole entry): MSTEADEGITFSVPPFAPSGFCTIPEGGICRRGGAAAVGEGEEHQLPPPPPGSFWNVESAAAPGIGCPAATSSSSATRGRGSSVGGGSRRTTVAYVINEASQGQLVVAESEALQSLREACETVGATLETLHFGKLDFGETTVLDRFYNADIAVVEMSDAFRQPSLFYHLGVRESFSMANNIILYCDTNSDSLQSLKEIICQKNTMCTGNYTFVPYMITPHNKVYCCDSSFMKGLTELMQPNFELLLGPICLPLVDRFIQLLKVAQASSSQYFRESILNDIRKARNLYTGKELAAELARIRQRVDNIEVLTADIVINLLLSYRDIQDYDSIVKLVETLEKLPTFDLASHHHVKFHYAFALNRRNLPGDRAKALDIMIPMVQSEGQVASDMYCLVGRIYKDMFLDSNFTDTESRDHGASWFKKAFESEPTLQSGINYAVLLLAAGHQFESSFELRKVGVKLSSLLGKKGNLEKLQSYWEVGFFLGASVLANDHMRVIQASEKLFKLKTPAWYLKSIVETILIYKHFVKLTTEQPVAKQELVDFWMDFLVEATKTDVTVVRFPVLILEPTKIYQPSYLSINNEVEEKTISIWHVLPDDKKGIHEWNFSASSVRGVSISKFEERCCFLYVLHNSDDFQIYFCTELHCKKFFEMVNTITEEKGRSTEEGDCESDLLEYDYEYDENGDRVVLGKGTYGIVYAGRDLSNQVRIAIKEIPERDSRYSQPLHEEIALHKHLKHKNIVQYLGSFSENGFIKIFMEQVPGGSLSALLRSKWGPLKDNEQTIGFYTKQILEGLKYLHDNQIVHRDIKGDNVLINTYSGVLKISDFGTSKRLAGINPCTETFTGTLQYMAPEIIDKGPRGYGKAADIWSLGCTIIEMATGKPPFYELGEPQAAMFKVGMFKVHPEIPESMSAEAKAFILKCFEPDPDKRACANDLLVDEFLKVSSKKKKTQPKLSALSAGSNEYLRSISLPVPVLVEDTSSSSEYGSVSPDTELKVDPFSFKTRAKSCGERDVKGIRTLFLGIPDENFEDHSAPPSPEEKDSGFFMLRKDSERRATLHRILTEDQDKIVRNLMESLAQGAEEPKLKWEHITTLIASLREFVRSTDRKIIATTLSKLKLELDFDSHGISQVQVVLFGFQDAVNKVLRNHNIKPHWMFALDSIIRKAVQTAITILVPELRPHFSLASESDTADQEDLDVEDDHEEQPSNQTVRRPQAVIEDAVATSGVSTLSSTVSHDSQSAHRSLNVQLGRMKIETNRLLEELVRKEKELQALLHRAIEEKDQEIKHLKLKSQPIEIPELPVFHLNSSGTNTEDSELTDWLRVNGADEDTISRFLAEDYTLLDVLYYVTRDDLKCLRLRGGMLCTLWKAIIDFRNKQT

Assay [3] addresses Serine/threonine-protein kinase pim-3 (Homo sapiens) (UniProt Q86V86).
The target in assay [4] is Death-associated protein kinase 3 (Homo sapiens) (UniProt O43293).
Sequence of Death-associated protein kinase 3 (Homo sapiens) (O43293 whole entry, looked up): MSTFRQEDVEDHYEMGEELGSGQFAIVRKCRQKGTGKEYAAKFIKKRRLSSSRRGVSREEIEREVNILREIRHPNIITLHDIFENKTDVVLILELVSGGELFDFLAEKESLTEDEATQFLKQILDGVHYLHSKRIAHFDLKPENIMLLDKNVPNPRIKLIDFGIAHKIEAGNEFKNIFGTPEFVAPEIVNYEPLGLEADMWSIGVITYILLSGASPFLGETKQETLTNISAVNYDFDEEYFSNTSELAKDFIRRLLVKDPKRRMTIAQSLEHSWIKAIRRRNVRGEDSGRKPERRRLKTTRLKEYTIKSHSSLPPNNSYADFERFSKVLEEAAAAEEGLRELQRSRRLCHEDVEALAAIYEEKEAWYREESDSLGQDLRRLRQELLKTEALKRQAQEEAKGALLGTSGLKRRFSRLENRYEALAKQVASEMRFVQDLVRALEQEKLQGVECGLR
The target of assay [5] is Cyclin-dependent kinase 6 (Homo sapiens) (UniProt Q00534).
Sequence of Cyclin-dependent kinase 6 (Homo sapiens) (Q00534 whole entry): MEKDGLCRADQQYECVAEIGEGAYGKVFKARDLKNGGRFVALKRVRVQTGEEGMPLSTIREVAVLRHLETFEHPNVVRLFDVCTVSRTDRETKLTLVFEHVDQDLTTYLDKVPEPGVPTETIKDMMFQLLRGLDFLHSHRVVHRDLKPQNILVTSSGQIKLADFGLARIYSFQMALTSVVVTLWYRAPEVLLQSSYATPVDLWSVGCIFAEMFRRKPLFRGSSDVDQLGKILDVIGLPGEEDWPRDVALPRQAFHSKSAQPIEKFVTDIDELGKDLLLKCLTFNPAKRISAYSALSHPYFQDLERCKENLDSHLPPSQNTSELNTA
Assay [6] deals with Serine/threonine-protein kinase 26 (Homo sapiens) (UniProt Q9P289).
The target of assay [7] is cAMP-dependent protein kinase catalytic subunit alpha (Homo sapiens) (UniProt P17612).
In assay [8] the target is Calcium/calmodulin-dependent protein kinase type II subunit beta (Homo sapiens) (UniProt Q13554).
Sequence of Calcium/calmodulin-dependent protein kinase type II subunit beta (Homo sapiens) (Q13554 whole entry): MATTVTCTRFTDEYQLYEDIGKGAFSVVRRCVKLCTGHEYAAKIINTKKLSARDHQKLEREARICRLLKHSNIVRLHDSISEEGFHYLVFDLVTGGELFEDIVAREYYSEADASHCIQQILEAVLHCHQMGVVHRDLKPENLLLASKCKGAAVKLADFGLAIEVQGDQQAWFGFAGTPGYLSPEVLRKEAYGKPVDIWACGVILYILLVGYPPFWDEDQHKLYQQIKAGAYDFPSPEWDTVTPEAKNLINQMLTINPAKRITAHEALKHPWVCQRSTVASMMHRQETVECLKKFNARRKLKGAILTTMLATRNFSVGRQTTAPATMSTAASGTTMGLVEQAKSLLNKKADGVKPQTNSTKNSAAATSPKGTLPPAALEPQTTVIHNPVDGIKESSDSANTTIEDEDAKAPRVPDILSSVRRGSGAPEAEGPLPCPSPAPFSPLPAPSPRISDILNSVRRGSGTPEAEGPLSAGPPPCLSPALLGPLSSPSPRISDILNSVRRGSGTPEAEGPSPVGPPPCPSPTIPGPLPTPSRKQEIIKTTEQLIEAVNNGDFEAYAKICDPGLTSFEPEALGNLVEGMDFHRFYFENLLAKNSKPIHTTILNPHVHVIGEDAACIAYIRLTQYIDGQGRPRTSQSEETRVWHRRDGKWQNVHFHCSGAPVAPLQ
Assay [9] concerns the target Serine/threonine-protein kinase PAK 4 (Homo sapiens) (UniProt O96013).
The target in assay [10] is Casein kinase I isoform gamma-2 (Homo sapiens) (UniProt P78368).
Sequence of Casein kinase I isoform gamma-2 (Homo sapiens) (P78368 whole entry, looked up, canonical isoform): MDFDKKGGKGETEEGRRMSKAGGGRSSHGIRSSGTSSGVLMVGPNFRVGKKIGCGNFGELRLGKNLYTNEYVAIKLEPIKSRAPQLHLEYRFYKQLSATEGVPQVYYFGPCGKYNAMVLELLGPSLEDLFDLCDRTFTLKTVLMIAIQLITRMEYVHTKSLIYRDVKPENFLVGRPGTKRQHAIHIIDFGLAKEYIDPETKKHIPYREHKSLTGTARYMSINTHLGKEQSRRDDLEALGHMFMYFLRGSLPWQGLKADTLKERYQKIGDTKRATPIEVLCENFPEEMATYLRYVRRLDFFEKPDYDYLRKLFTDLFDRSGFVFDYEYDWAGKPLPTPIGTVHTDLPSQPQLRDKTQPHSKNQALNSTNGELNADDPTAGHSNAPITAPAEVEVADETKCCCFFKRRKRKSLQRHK
The target in assay [11] is Ribosomal protein S6 kinase alpha-3 (Homo sapiens) (UniProt P51812).
Sequence of Ribosomal protein S6 kinase alpha-3 (Homo sapiens) (P51812 whole entry): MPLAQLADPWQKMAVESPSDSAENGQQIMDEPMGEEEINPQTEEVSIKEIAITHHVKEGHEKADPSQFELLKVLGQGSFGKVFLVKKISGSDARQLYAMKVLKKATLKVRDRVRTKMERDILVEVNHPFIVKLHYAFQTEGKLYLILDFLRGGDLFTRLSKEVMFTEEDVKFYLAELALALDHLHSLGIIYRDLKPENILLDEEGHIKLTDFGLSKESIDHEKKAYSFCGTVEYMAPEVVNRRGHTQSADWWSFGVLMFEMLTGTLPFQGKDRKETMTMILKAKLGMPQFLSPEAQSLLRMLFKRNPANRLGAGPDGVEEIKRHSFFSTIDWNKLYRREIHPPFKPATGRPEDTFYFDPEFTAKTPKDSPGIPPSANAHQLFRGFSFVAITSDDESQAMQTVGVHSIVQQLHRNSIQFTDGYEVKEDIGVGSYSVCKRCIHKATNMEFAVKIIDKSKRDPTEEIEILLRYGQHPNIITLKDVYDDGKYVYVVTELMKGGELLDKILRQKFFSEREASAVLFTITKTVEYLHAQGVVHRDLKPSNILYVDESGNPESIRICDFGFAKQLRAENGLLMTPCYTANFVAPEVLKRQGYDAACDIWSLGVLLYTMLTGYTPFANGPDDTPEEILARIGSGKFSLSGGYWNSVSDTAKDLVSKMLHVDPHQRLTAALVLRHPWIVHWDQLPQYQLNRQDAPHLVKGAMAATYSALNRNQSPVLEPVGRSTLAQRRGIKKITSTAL
The target in assay [12] is Mitogen-activated protein kinase 6 (Homo sapiens) (UniProt Q16659).
Sequence of Mitogen-activated protein kinase 6 (Homo sapiens) (Q16659 whole entry): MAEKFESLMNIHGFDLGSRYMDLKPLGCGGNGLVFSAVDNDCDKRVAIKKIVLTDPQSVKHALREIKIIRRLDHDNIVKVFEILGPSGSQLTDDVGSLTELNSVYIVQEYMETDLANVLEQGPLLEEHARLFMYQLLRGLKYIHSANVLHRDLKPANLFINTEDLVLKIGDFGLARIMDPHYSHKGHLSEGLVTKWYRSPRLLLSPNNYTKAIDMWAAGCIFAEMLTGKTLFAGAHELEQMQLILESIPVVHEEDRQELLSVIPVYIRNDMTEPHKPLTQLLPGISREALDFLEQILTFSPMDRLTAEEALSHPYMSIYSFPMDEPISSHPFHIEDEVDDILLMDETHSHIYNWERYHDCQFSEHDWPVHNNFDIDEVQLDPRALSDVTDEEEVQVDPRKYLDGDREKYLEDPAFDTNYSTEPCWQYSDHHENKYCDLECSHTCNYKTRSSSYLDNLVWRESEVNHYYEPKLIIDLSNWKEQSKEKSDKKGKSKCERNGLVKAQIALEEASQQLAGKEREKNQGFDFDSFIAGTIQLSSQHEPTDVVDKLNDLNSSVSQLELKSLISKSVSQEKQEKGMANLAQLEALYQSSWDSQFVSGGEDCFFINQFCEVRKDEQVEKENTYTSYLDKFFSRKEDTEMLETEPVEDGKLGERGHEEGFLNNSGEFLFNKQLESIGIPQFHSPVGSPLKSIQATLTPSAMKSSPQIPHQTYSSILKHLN
The target of assay [13] is Glycogen synthase kinase-3 beta (Homo sapiens, UniProt P49841).
Assay [14] has as its target Tyrosine-protein kinase JAK1 (Homo sapiens) (UniProt P23458).
The target in assay [15] is T3, Dual specificity mitogen-activated protein kinase kinase 6 (Homo sapiens) (UniProt P52564).
T3 sequence (whole entry): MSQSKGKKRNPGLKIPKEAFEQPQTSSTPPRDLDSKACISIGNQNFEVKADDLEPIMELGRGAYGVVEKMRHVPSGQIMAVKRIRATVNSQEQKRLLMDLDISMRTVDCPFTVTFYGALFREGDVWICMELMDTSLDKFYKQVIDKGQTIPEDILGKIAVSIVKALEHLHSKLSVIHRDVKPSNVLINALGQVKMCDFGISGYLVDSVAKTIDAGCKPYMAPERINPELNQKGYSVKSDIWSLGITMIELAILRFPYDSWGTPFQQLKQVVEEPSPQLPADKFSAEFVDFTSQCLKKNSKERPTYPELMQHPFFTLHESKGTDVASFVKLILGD

Usually ΔTm stands for the shift of the melting midpoint relative to a reference.

SMILES strings stand for the structures.

Sequence of Tyrosine-protein kinase JAK1 (Homo sapiens) (P23458 whole entry): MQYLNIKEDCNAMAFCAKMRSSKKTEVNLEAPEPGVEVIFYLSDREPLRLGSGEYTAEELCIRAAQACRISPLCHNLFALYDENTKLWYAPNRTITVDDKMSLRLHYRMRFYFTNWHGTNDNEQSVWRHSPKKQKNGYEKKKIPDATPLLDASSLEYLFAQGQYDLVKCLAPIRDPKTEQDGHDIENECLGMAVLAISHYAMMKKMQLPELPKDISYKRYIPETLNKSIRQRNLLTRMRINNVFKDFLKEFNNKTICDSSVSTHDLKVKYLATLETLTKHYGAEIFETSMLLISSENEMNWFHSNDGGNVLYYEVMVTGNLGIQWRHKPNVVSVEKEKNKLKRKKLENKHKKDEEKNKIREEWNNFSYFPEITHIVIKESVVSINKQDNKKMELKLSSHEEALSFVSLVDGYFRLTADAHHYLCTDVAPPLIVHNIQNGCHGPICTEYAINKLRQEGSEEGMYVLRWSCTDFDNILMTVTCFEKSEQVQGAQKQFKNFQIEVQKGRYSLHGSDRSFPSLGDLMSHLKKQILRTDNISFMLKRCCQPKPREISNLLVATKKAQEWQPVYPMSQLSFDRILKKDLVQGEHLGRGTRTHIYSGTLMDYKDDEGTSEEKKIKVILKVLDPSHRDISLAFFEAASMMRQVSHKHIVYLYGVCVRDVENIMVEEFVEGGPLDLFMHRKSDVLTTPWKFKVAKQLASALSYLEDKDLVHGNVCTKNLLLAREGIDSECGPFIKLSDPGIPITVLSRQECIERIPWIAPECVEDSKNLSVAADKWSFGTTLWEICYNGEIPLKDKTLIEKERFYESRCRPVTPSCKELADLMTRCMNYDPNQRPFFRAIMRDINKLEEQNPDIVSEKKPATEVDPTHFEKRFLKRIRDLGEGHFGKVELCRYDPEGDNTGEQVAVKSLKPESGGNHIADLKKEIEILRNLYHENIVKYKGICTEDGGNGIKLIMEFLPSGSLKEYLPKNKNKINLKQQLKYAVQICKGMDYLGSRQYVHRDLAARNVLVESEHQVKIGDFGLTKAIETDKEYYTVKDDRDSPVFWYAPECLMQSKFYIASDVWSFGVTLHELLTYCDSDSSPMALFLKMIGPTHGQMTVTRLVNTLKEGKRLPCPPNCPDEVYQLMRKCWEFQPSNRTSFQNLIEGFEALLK

Regarding `C/C(O)=C(\C#N)C(=O)Nc1cc(Br)ccc1Br`, the ΔTm in [1] was 0 °C; in assay [2], -0.7 °C; in assay [3], 3.8 °C; in assay [4], 0.7 °C; in assay [5], 0.2 °C; in [6] it was 0.2 °C. For the same compound, the ΔTm in assay [7] was 1.4 °C; in assay [8], 0 °C; in assay [9], -0.3 °C; in assay [10], 0.4 °C; in [11], 0.2 °C; in assay [12] it was 0.4 °C. The results for the ΔTm in [13], in assay [14] and in [15] were 1.8 °C, 0.7 °C and 0.2 °C, respectively.

As for `COc1cc(/C=C/C(=O)CC(=O)/C=C/c2ccc(O)c(OC)c2)ccc1O` [CURCUMIN], the ΔTm in assay [1] was 1 °C; in assay [2], 3.1 °C; in assay [3], 6.9 °C; in [4], 1.8 °C; in assay [5], 2.1 °C; in assay [6], 1.7 °C. Also, the ΔTm in assay [7] was determined as 3.4 °C; in assay [8], 1 °C; in assay [9], 3 °C; in assay [10], 2.3 °C; in [11], 3 °C; in assay [12], 1.8 °C. The ΔTm in assay [13] came out at 3.4 °C; in assay [14], 4.1 °C; in [15], 4 °C.

As for `Oc1cc(O)cc(/C=C/c2ccc(O)c(O)c2)c1` [PICEATANNOL], the ΔTm was 0.2 °C in assay [1]; -0.6 °C in [2]; 3.5 °C in [3]; 4.6 °C in assay [4]; 0.3 °C in assay [5]; 0.9 °C in assay [6]. For the same compound, the ΔTm was 2.7 °C in assay [7]; -0.2 °C in assay [8]; 1.5 °C in [9]; 0.2 °C in assay [10]; 0.9 °C in assay [12]; 0.8 °C in assay [13]. In addition, the figures for the ΔTm in assay [14] and in [15] were 2 °C and 0.1 °C, respectively.

For the compound `O=C1Nc2ccccc2/C1=C\c1ccc[nH]1`, the ΔTm in [1] is 0.3 °C; in assay [2] it was 5.2 °C; in [3], 2.1 °C; in assay [4], -0.2 °C; in assay [5] it was 2.6 °C; in assay [6], 3.5 °C. For the same compound, the ΔTm is 1.7 °C in [7]; 0.6 °C in [8]; 1.2 °C in [9]; 1.6 °C in assay [10]; -0.1 °C in [12]; 3.3 °C in assay [13]. For the same compound, the values for the ΔTm in [14] and in assay [15] were 8.5 °C and 3.4 °C, respectively.

On to `O=C1Cc2c([nH]c3ccc(Br)cc23)-c2ccccc2N1` [KENPAULLONE], for which the ΔTm in assay [1] is -0.1 °C; in assay [2], 0.8 °C; in assay [3], 4.6 °C; in [4], 0.4 °C; in assay [5] it was 0.7 °C; in assay [6], 1.4 °C. For the same compound, the ΔTm in [7] is 1 °C; in [8] it was 0.5 °C; in [9], 3.4 °C; in assay [10], 0 °C; in assay [12], 0.9 °C; in assay [13], 10.5 °C. Further, the ΔTm in [14] turned out to be 1.7 °C; in assay [15], 0.4 °C.

For the compound `COc1nccc(-c2c(-c3ccc(F)cc3)ncn2[C@H]2CC[C@H](O)CC2)n1`, the ΔTm in [1] was 1.2 °C; in [3] it was -0.2 °C; in assay [4] it was 0.4 °C; in [5], 0.1 °C; in [6], -1.4 °C; in [7] it was -0.8 °C. The ΔTm in assay [9] came out at 0.7 °C; in assay [10] it was 1 °C; in assay [11] it was 0.2 °C; in [12] it was 0.8 °C; in assay [13] it was 0.4 °C; in [14], 0.8 °C. For the same compound, the ΔTm in [15] is 0 °C.

Take `CCN1/C(=C/C(C)=O)Sc2ccc(OC)cc21`: the thermal shift (ΔTm) in assay [1] was 0.3 °C; in assay [2], 0.4 °C; in assay [3], 0.2 °C; in [4], 0.9 °C; in assay [5], 0.4 °C; in assay [6] it was -0.3 °C. The ΔTm was -0.5 °C in [7]; 0.3 °C in assay [8]; 0.9 °C in assay [9]; -0.6 °C in assay [11]; 0 °C in assay [12]; 1.4 °C in assay [13]. Further, the ΔTm in assay [14] is -0.4 °C; in assay [15] it was 0.3 °C.

As to `CN(C)C[C@@H]1CCn2cc(c3ccccc32)C2=C(C(=O)NC2=O)c2cn(c3ccccc23)CCO1` [RUBOXISTAURIN], the ΔTm in [1] was 0.8 °C; in [2], 0.1 °C; in assay [3], 5.8 °C; in assay [4], 1.1 °C; in [5] it was 0.5 °C; in [6] it was -2 °C. The ΔTm in assay [8] is 0.5 °C; in assay [10], 0.9 °C; in assay [11] it was 0.9 °C; in [12], 0.1 °C; in assay [13] it was 5.9 °C; in [14], -0.5 °C. Also, the ΔTm in assay [15] worked out at 0.5 °C.

`CC[C@H](CO)Nc1nc(NCc2ccccc2)c2ncn(C(C)C)c2n1` [SELICICLIB]: the ΔTm in assay [1] worked out at 0 °C; in [2], 1 °C; in assay [3] it was 0.5 °C; in assay [5], 0.2 °C; in assay [6], 0.6 °C; in assay [7] it was 0.2 °C. The ΔTm is 0.3 °C in [8]; 1.7 °C in assay [9]; 1.4 °C in assay [11]; -0.4 °C in [12]; 0.4 °C in assay [13]; 0.1 °C in assay [14]. In addition, the ΔTm in assay [15] turned out to be 0.2 °C.

The record behind these values is ChEMBL document CHEMBL1145498, “A systematic interaction map of validated kinase inhibitors with Ser/Thr kinases” (Proc Natl Acad Sci U S A, 2007).
